Laboratory results as given in US8686187B2, “Ethoxy diphenyl ethane derivatives, preparation processes and uses thereof” (Shanghai Ecust Biomedicine Co., Ltd., priority 2008, dated 2014).
Like-named read-outs stand apart in the source and are kept apart here.

Assays:
[1] = test system: S180 sarcoma transplanted tumor; test: Tumor-inhibiting rate experiment, intravenous injection, S180 sarcoma transplanted tumor in mice; assay type: in vivo; conditions: for Tumor-inhibiting rate (%): d0-d12 seven times, tumor weight; for tumor volume observation in drug administered group: around the eighth day after drug administration
Description: After 1 week for adaptation, mice are subcutaneously inoculated with S180 sarcoma tissues and randomly grouped after the tumor grows as much as the area of 100 to 300 mm^3; every compound is used for 6 mice in drug administered group and for 12 mice in control group, the administration doses are as below: 25, 50 mg/kg of ECB1P, ECB1GN hydrochloride, ECB1SN hydrochloride and positive controls ECA4P, ECA4GN hydrochloride, as well as 50, 100 mg/kg of positive controls CB1GA hydrochloride, CB1P and CA4P, the administration is given intravenously on Day d0, d2, d4, d6, d8, d10 and d12, seven times in total, measurement of tumor volume, mice weighing and data recording are performed three times every week, the mice are executed on the fourtheenth day after inoculation, tumor tissues are weighed to calculate the tumor-inhibiting rate, tumor weight inhibiting rate %=(1−average tumor weight in treatment group/average tumor weight in control group)×100%.

Kunming mice = test: Acute toxicity test of single mice intraperitoneal injection; assay type: in vivo; conditions: for LD50: 14 days observation
Description: Kunming mice (half-and-half male and female, 17 to 22 grams heavy) are randomly grouped according to weights thereof, and during the test, the mice are divided, based on the proportion of 0.9, into 10 dose groups with each including 10 mice and having the maximal dose of 1500 mg/kg, the tested drugs having the respective doses of 1500, 1350, 1215, 1093, 984, 885, 797, 717, 645 and 581 mg/kg are administered in a manner of single intraperitoneal injection, mice observation and death rate recording are respectively performed once 0.25 h, 0.5 h, 1 h, 2 h, 4 h and 24 h after the drug administration, afterwards, everyday mice observation and death rate recording are performed for 14 days, the mice that are not dead are executed on the fifteenth day and are subjected to pathological anatomy.

[2] = test system: Human umbilical vein endothelial cell (HUVEC); test: Proliferation inhibition of human umbilical vein endothelial cells (SRB); assay type: cell-based
[3] = test system: Human colorectal cancer cell HT-29; test: Antitumor activity evaluation for in vitro cultured tumor cells (SRB); assay type: cell-based; conditions: for times stronger than positive control CB1: colorectal cancer HT-29
[4] = test system: Non-small cell lung cancer cell NCl-H292; test: as above; assay type: cell-based
Gastric cancer SGC-7901 = test: as above; assay type: cell-based
Liver cancer Bel-7402 = test: as above; assay type: cell-based
[5] = NCl-H292, 48 hours, SRB, read-out: IC50
[6] = HT-29, 48 hours, SRB, read-out: IC50
[7] = SGC-7901, 48 hours, SRB, read-out: IC50
[8] = Bel-7402, 48 hours, SRB, read-out: IC50

3,4,5-trimethoxy-3′-glycylamino-4′-ethoxydiphenylethane [CB1GN hydrochloride]
Tumor-inhibiting rate (%) ([1]; 50 mg/kg intravenously): 26%

3,4,5-trimethoxy-3′-glycylamino-4′-ethoxydiphenylethane [ECB1GN hydrochloride]
Tumor-inhibiting rate (%) ([1]; 25 mg/kg intravenously): 40% | tumor volume observation in drug administered group [1]: tendency of tumor shrinkage | toxicity compared with positive controls (Kunming mice): toxicity lower than ethoxydiphenylethylene positive control compounds ECA4P and ECA4GN hydrochloride | LD50 (Kunming mice): 1012 mg/kg

3,4,5-trimethoxy-4′-ethoxydiphenylethane-3′-o-disodium phosphate salt [ECB1P]
Tumor-inhibiting rate (%) ([1]; 25 mg/kg intravenously): 42% | tumor volume observation in drug administered group [1]: tendency of tumor shrinkage | toxicity compared with positive controls (Kunming mice): toxicity lower than ethoxydiphenylethylene positive control compounds ECA4P and ECA4GN hydrochloride | LD50 (Kunming mice): 1056 mg/kg

3,4,5-trimethoxy-4′-methoxydiphenylethane3′-o-disodium phosphate salt [CB1P]
Tumor-inhibiting rate (%) ([1]; 50 mg/kg intravenously): 28% | LD50 (Kunming mice): 1228 mg/kg

COc1ccc(/C=C\c2cc(OC)c(OC)c(OC)c2)cc1O [CA4, (Z)-3,4,5-trimethoxy-3′-hydroxy-4′-methoxydiphenylethylene]
IC50 ([2]; 48 hours, SRB, read-out: IC50): 4.8 nM | IC50 ([2]; Homo sapiens, 48 h, SRB, read-out: IC50): 4.8 to 7.7 nM | IC50 ([3]; Homo sapiens, HT-29, 48 hours, SRB, read-out: IC50): 21 nM | IC50 [4, 5]: 2400 nM | IC50 (Gastric cancer SGC-7901; Homo sapiens, SGC-7901, 48 hours, SRB, read-out: IC50): 3.6 nM | IC50 (Liver cancer Bel-7402; Homo sapiens, Bel-7402, 48 hours, SRB, read-out: IC50): 830 nM

COc1ccc(CCc2cc(OC)c(OC)c(OC)c2)cc1O [CB1, 3,4,5-trimethoxy-3′-hydroxy-4′-methoxydiphenylethane]
IC50 ([2]; 48 hours, SRB, read-out: IC50): 5.6 nM | IC50 [3, 6]: 35 nM | IC50 [4, 5]: 2800 nM | IC50 (Gastric cancer SGC-7901; [7]): 4.2 nM | IC50 (Liver cancer Bel-7402; [8]): 1700 nM

COc1ccc(CCc2cc(OC)c(OC)c(OC)c2)cc1N [CB1N, 3,4,5-trimethoxy-3′-amino-4′-methoxydiphenylethane]
IC50 ([2]; 48 hours, SRB, read-out: IC50): 7.7 nM | IC50 [3, 6]: 39 nM | IC50 [4, 5]: 3000 nM | IC50 (Gastric cancer SGC-7901; [7]): 4.8 nM | IC50 (Liver cancer Bel-7402; [8]): 2500 nM

CCOc1ccc(/C=C\c2cc(OC)c(OC)c(OC)c2)cc1O [ECA4, (Z)-3,4,5-trimethoxy-3′-hydroxy-4′-ethoxydiphenylethylene]
IC50 ([2]; Homo sapiens, 48 h): 0.8 nM | IC50 ([3]; Homo sapiens, HT-29, 48 h): 0.28 nM | IC50 ([4]; 48 h): 160 nM | IC50 (Gastric cancer SGC-7901; Homo sapiens, SGC-7901, 48 h): 0.25 nM | IC50 (Liver cancer Bel-7402; Homo sapiens, Bel-7402, 48 h): 63 nM

CCOc1ccc(/C=C\c2cc(OC)c(OC)c(OC)c2)cc1NC(=O)CN.Cl [ECA4GN hydrochloride, (Z)-3,4,5-trimethoxy-3′-glycylamino-4′-ethoxydiphenylethane]
Tumor-inhibiting rate (%) ([1]; 25 mg/kg intravenously): 39% | Tumor-inhibiting rate (%) ([1]; 50 mg/kg intravenously, listed as ECA4GN hydrochlonde): 64% | tumor volume observation in drug administered group [1]: tendency of tumor shrinkage | LD50 (Kunming mice): 912 mg/kg

CCOc1ccc(/C=C\c2cc(OC)c(OC)c(OC)c2)cc1N [ECA4N, (Z)-3,4,5-trimethoxy-3′-amino-4′-ethoxydiphenylethylene]
IC50 ([2]; Homo sapiens, 48 h): 0.76 nM | IC50 ([3]; Homo sapiens, HT-29, 48 h): 0.15 nM | IC50 ([4]; 48 h): 100 nM | IC50 (Gastric cancer SGC-7901; Homo sapiens, SGC-7901, 48 h): 0.19 nM | IC50 (Liver cancer Bel-7402; Homo sapiens, Bel-7402, 48 h): 39 nM

CCOc1ccc(/C=C\c2cc(OC)c(OC)c(OC)c2)cc1OP(=O)([O-])[O-].[Na+].[Na+] [ECA4P, (Z)-3,4,5-trimethoxy-4′-ethoxydiphenylethylene-3′-o-disodium phosphate salt]
Tumor-inhibiting rate (%) ([1]; 25 mg/kg intravenously): 43% | tumor volume observation in drug administered group [1]: tendency of tumor shrinkage | LD50 (Kunming mice): 906 mg/kg

CCOc1ccc(CCc2cc(OC)c(OC)c(OC)c2)cc1O [ECB1, 3,4,5-trimethoxy-3′-hydroxy-4′-ethoxydiphenylethane]
IC50 ([2]; 48 hours, SRB, read-out: IC50): 0.75 nM | IC50 [3, 6]: 0.34 nM | times stronger than positive control CB1 [3]: about 100 times | IC50 [4, 5]: 170 nM | IC50 (Gastric cancer SGC-7901; [7]): 0.28 nM | IC50 (Liver cancer Bel-7402; [8]): 57 nM

CCOc1ccc(CCc2cc(OC)c(OC)c(OC)c2)cc1N [ECB1N, 3,4,5-trimethoxy-3′-amino-4′-ethoxydiphenylethane]
IC50 ([2]; 48 hours, SRB, read-out: IC50): 0.68 nM | IC50 [3, 6]: 0.18 nM | times stronger than positive control CB1 [3]: about 200 times | IC50 [4, 5]: 120 nM | IC50 (Gastric cancer SGC-7901; [7]): 0.15 nM | IC50 (Liver cancer Bel-7402; [8]): 34 nM

CCOc1ccc(CCc2cc(OC)c(OC)c(OC)c2)cc1NC(=O)C(N)CO.Cl (centres unmarked) [ECB1SN hydrochloride, 3,4,5-trimethoxy-3′-serylamino-4′-ethoxydiphenylethane]
Tumor-inhibiting rate (%) ([1]; 25 mg/kg intravenously): 45% | tumor volume observation in drug administered group [1]: tendency of tumor shrinkage | toxicity compared with positive controls (Kunming mice): toxicity lower than ethoxydiphenylethylene positive control compounds ECA4P and ECA4GN hydrochloride | LD50 (Kunming mice): 1185 mg/kg

(Z)-3,4,5-trimethoxy-4′-methoxydiphenylethylene-3′-o-disodium phosphate salt [CA4P]
Tumor-inhibiting rate (%) ([1]; 50 mg/kg intravenously): 28% | LD50 (Kunming mice): 1276 mg/kg
